We go through six compounds from ChEMBL document CHEMBL1933054, “Structure-based design of PDK1 inhibitors” (Bioorg Med Chem Lett, 2012).

Molecules are shown by their SMILES. Where only a bound is given, the exact number is not on record here.

In data set [1] the target is T1, 3-phosphoinositide-dependent protein kinase 1 (Homo sapiens, UniProt O15530).
T1 sequence (O15530 whole entry): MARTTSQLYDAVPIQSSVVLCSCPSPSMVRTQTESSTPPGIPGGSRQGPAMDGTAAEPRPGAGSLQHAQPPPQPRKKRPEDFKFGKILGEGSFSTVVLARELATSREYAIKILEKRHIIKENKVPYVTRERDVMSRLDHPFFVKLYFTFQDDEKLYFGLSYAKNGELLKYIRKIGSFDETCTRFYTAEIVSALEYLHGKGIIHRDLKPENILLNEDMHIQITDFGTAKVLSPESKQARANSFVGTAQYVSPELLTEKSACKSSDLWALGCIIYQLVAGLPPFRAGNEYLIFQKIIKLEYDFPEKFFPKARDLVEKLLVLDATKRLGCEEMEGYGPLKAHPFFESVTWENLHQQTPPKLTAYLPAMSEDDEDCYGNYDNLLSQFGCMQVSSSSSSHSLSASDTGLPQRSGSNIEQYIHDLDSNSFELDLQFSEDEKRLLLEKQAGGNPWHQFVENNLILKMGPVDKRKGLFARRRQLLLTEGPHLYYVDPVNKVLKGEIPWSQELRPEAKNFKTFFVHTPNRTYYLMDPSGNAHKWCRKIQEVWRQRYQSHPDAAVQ
Description: Inhibition of PDK1 using [gamma33P]-ATP as substrate after 30 mins by scintillation counting.

Data set [2] has as its target Cyclin-dependent kinase 2 (Homo sapiens, UniProt P24941). Nature of the data set: Inhibition of CDK2.
Data set [3] concerns the target T2, Receptor-type tyrosine-protein kinase FLT3 (Homo sapiens, UniProt P36888).
T2 sequence (P36888 whole entry): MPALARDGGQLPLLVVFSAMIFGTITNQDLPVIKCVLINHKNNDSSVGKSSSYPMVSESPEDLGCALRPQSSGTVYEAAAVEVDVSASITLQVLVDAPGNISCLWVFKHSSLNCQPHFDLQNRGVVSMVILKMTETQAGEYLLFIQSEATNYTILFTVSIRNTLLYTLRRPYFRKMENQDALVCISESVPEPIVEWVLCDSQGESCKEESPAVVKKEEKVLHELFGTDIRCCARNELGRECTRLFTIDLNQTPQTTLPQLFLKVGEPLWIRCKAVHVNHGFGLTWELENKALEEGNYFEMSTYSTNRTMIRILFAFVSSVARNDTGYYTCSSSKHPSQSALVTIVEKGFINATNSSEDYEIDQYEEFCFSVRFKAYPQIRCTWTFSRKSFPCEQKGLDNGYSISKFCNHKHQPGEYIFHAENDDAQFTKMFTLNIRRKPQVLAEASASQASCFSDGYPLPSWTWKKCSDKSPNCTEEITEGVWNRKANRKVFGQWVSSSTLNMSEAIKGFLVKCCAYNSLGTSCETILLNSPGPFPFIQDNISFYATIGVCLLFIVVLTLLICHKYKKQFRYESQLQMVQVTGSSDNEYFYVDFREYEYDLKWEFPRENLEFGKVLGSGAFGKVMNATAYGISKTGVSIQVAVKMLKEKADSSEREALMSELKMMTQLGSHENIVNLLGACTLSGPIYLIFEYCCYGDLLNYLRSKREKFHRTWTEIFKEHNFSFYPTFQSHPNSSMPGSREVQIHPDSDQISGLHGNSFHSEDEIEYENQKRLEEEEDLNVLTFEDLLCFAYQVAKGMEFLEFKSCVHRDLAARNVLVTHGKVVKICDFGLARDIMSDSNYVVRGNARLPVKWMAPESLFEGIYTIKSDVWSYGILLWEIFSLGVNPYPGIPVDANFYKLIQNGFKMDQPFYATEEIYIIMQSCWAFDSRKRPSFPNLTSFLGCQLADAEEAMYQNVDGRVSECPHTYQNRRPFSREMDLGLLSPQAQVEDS
Description: Inhibition of Flt3.

Data set [4] concerns the target Tyrosine-protein kinase JAK2 (Homo sapiens, UniProt O60674). Description: Inhibition of JAK2.
Data set [5] in a line: Half life in human liver microsomes. The format is ADME, Microsome. A general note: Liver microsomes are vesicles of endoplasmic reticulum, rich in cytochrome P450 enzymes.
Data set [6] can be described thus: Oral bioavailability in mouse. Particulars: in vivo. The format is ADME, organism-based.

Chain of Tyrosine-protein kinase JAK2 (O60674 whole entry): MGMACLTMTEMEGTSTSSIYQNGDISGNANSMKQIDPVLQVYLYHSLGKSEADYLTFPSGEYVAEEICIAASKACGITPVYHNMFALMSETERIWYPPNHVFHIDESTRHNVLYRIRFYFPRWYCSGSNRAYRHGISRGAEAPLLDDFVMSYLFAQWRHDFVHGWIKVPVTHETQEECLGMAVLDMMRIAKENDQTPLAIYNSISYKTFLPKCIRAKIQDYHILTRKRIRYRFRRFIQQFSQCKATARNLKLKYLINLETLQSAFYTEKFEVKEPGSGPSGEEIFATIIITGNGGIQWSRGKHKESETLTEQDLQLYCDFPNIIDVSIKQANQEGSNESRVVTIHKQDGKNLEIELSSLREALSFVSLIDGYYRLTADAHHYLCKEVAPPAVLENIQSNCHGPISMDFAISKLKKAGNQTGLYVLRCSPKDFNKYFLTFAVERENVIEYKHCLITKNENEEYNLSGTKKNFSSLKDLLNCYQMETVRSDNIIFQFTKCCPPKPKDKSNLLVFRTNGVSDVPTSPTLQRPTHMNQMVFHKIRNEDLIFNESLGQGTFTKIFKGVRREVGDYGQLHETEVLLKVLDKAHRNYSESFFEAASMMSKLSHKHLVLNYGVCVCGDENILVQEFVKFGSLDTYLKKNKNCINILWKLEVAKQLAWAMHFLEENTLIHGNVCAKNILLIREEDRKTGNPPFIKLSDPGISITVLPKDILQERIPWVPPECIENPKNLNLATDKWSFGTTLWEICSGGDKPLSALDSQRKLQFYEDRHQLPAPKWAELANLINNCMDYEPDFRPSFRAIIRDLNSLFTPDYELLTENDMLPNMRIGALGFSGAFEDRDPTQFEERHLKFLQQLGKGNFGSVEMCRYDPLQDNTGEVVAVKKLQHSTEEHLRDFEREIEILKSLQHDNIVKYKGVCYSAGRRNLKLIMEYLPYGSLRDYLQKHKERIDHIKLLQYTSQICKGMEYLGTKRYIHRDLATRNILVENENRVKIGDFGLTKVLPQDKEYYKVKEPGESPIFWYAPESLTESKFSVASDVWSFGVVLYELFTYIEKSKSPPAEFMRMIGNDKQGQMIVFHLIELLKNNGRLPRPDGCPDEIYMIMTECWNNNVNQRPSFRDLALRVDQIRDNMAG

One may read the IC50 as the concentration at which inhibition is half-maximal. For `Cc1cnc2nc1-c1cccc(c1)OCC/C=C/CN(C)Cc1cccc(c1)N2`, the IC50 in data set [1] came to 1.4 µM; in data set [2], 0.15 µM; in data set [3], 0.022 µM; in data set [4], 0.18 µM.
In the case of `CN1C/C=C/CCOc2cccc(c2)-c2nc(nc3[nH]cnc23)Nc2cccc(c2)C1`, the IC50 in data set [1] was 0.39 µM; in data set [2], 4.1 µM; in data set [3] it was 0.058 µM.
For `Oc1ccc(-c2nc(Nc3cccc(Cl)c3)nc3[nH]cnc23)cc1`, the IC50 in data set [1] was 1.6 µM; in data set [2], 7 µM; in data set [3], 7.3 µM; in data set [4] it was 0.83 µM.
The like results for `COc1ccc(-c2nc(Nc3cccc(NC(=O)CN)c3)nc3[nH]cnc23)cc1OC` were, in that order, 0.098 µM, above 10 µM, 0.35 µM and 0.33 µM.
What is called half-life is the time needed for the level to fall by half in the phase considered. The bioavailability is the share of a dose that reaches the circulation, judged against a reference dose that is usually intravenous. Regarding `COc1ccc(-c2nc(Nc3cccc(NC(=O)N4CCCC4)c3)nc3nc[nH]c23)cc1`, the half-life in data set [5] was above 1 h. Also, the bioavailability in data set [6] worked out at 65%.
In the case of `CC(C)(C(N)=O)C(=O)NCCCNc1nc(Nc2cccc(NC(=O)N3CCCC3)c2)ncc1Br`, in data set [2], the IC50 is 1.5 µM.
